Measurements from EP1133986A1, “Use of deramciclane for the treatment of anxiety and depression” (priority 2000, dated 2001).
Read-outs that look alike come from different tables or passages of the source.

What was measured:
[1] = rat, cited from earlier work
[2] = human, cited from earlier work
depressive symptoms = test: randomised placebo-controlled double-blind study in GAD, Montgomery Åsberg Depression Rating Scale (MADRS); assay type: in vivo, humans; conditions: GAD patients
Protocol: (§1) The efficacy of deramciclane in the treatment of anxiety, specifically GAD, was studied in a randomised placebo-controlled double-blind study. In addition, the dose-dependency of the effects of deramciclane was evaluated. Total of 208 patients were included in the study. The subjects were randomly assigned to four parallel groups to receive one tablet twice daily (b.i.d) of a placebo, 5mg (=10mg/day), 15mg (=30mg/day), or 30mg (=60mg/day) deramciclane. The study started with a one-week placebo run-in period, followed by an eight-week placebo-controlled active treatment and a two-week placebo washout period.
The efficacy of deramciclane on depressive symptoms was studied using Montgomery Åsberg Depression Rating Scale (MADRS).

rats [3] = conditions: single intraperitoneal administration; cited from earlier work
[4] = parameters: species or system human; conditions: in vivo
Protocol: A comparative pharmacokinetic study of orally administered deramciclane in rats, dogs, rabbits and humans (Klebovich et al Pharm. Pharmacol. Commun., 4: 129-136, 1998), it was shown that the plasma concentration curves obtained after the administration of a single 3mg/kg oral dose of deramciclane to rats (dogs, rabbits) and human show considerable species specific differences. […] Thus a 40-times lower oral dose of deramciclane could be used in man to result in the same maximal plasma concentration as in rat. […] Thus over 300 times lower oral doses should result in equal exposure in humans than in rats. Basing only the Cmax difference between rat and man, it can be predicted that considerably lower doss should be centrally acitive in humans than in rat. The minimum oral effective anti-anxiety dose in rats was 1 mg/kg (1-30mg/kg the full range; see above), i.e. in a 70 kg-man this would mean 70 mg dose. […] This would result in 70 mg/40= 1.75 mg (i.e. 0.025 mg/kg) as an effective dose in man.

mice [5] = conditions: single subcutaneous administration, 3 mg/kg; cited from earlier work
rats [6] = conditions: oral doses of 25 and 100 mg/kg; cited from earlier work
[7] = test system: anxiety, specifically GAD; test: randomised placebo-controlled double-blind study in GAD, Hamilton Anxiety Scale (HAM-A); assay type: in vivo, humans; conditions: GAD patients
Protocol: as §1
The efficacy of deramciclane on anxiety symptoms was studied by the efficacy variable Hamilton Anxiety Scale (HAM-A), analyzing the change in the score and using responder criterion (at least 50 % reduction in HAM-A total score).

rats [8] = conditions: cited from earlier work
[9] = target: T1, serotonin 5-HT2C-receptor (Homo sapiens, UniProt P28335); conditions: cited from earlier work
T1 sequence (P28335 33-458): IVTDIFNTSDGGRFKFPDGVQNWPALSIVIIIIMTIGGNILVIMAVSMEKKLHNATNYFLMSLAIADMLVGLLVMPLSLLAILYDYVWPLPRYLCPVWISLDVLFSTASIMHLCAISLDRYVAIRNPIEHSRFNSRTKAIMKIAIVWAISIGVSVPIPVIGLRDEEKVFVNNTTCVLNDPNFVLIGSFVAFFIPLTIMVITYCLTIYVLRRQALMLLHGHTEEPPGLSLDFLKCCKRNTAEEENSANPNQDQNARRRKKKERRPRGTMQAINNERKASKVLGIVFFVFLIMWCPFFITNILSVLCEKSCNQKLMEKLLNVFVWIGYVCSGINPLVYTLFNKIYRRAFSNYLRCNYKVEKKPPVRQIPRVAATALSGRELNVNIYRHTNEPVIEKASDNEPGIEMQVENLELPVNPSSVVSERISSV

serotonin 5HT2A-receptor [10] = target: T2, serotonin 5HT2A-receptor (Homo sapiens, UniProt P28223); parameters: serotonin 5-HT2A-receptors in frontal cortex of healthy male volunteers; from tissue; host or cells: frontal cortex of living healthy male volunteers; conditions: humans, brain 5HT2A-receptor, single oral dose; cited from earlier work
T2 sequence (P28223 whole entry): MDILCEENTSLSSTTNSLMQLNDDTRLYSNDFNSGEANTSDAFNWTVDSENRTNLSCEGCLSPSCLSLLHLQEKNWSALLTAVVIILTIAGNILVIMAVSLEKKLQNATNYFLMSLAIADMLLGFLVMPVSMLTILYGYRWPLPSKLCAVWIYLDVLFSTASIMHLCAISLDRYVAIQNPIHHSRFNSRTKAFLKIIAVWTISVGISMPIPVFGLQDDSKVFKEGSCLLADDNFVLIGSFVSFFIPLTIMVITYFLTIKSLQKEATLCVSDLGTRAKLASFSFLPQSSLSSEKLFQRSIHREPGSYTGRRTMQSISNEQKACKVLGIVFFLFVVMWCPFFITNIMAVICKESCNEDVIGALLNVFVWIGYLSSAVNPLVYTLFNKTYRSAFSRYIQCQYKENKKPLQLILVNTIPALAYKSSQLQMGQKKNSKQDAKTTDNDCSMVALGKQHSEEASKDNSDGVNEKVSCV

mice [11] = conditions: oral doses 48-160 mg/kg; cited from earlier work
serotonin 5HT2A-receptor [12] = target: T2, serotonin 5HT2A-receptor; conditions: cited from earlier work
rats [13] = conditions: cited from earlier work; remark: listed apart in the source
[14] = humans, cited from earlier work; for Cmin and Cmax range: repeated administration for one week
rat = conditions: intraperitoneally 1 or 10 mg/kg, 8 times, twice a day, before the test; cited from earlier work
[15] = rats, 3 mg/kg, cited from earlier work
[16] = single oral administration, 3 mg/kg

CN(C)CCO[C@]1(c2ccccc2)C[C@H]2CC[C@]1(C)C2(C)C [deramciclane, (lR,2S,4R)-(-)-2-[N,N-(dimethylaminoethoxy)]-2-phenyl-1,7,7-trimethyl-bicyclo[2.2.1]heptane]
peak plasma concentration (Cmax) ([1]; single 3 mg/kg oral dose): 5.4 ng/mL | mean AUC 0 - ∞ [1, 16]: 11.9 ng·h/mL | peak plasma concentration (Cmax) ([2]; single 3 mg/kg oral dose): 217.5 ng/mL | mean AUC 0 - ∞ [2, 16]: 3737.8 ng·h/mL | effect on MADRS scores (depressive symptoms; 5 mg b.i.d): ineffective | decrease of MADRS scores (depressive symptoms; 15mg b.i.d, p= 0.028): 7.7 points | decrease of MADRS scores (depressive symptoms; 30 mg b.i.d, p= 0.016): 8.0 points | minimum effective dose (social interaction time) (rats [3]): 0.7 mg/kg | factor by which oral dose in man can be lower for the same maximal plasma concentration as in rat [4]: 40 times | factor by which oral doses in humans can be lower for equal exposure as in rats [4]: over 300 times | activity in two compartment test (mice [5]): active | effect in forced swimming test (rats [6]): clearly ineffective | HAM-A score compared with placebo ([7]; 5 mg b.i.d, eight weeks): No difference | responders (at least 50 % reduction in HAM-A scale) ([7]; 5 mg b.i.d. (n=31), placebo 54 %): 57% | decrease of HAM-A score from baseline ([7]; 15 mg b.i.d, eight weeks, p=0.006 versus placebo): 14.5 points | responders (at least 50 % reduction in HAM-A scale) ([7]; 15 mg b.i.d. (n=39), p=0.020 versus placebo): 76% | responders (at least 50 % reduction in HAM-A scale) ([7]; 30 mg b.i.d. (n=37)): 70% | decrease of HAM-A score from baseline ([7]; 30 mg b.i.d., eight weeks, not significant versus placebo): 14.5 points | caerulein-induced decrease in exploratory behavior (rats [8]; intraperitoneal dose of 0.5 mg/kg): able to attenuate | effect in elevated plus maze test (rats [8]; rats, single intraperitoneal doses 0.1 mg/kg - 5 mg/kg): totally ineffective | antagonism of the receptor [9]: potent antagonist | binding affinity ([9]; in vitro): high affinity | plasma concentration at 50% receptor occupancy (serotonin 5HT2A-receptor [10]): ~21 ng/mL | plasma concentration at 90% receptor occupancy (serotonin 5HT2A-receptor [10]): about 70 ng/ml | effect on tetrabenazine-induced ptosis (mice [11]): negligible | antagonism of the receptor (serotonin 5HT2A-receptor [12]): potent antagonist | binding affinity (serotonin 5HT2A-receptor [12]; in vitro): high affinity | minimum oral effective anti-anxiety dose (rats [13]; oral): 1 mg/kg | activity in punished drinking test (rats [13]; single oral administration, 1 mg/kg and 10 mg/kg): active | Cmin and Cmax range ([14]; 20 mg daily dose): 16 to 33 ng/mL | Cmin and Cmax range ([14]; 60 mg daily dose): 48 to 91 ng/mL | Cmax ([14]; single oral administration of 20 mg): 24 ± 9.4 ng/mL | Cmax ([14]; single oral administration of 30 mg): 27 ± 6.1 ng/mL | helpless behaviour induced by inescapable electric foot shocks (rat): dose dependently attenuated | radioactivity in several organs including blood and the brain ([15]; intravenous administration): high radioactivity | radioactivity in organs, especially in the brain ([15]; oral administration, compared with intravenous): substantially lower
